“Also recorded” adds a separate entry of the source.
Key:
[1] = test system: mGluR1α; assay: Glutamate/NMDA-induced C-terminal truncation of mGluR1α in cultured cortical neurons (immunoblot); assay type: cell-based; conditions: 100 μM glutamate
Text: (§1) Total cell lysates were separated by SDS-PAGE and probed with an antibody against the carboxyl terminus (residue 1142-1160) of mGluR1α. […] Total cell lysates were probed with an anti-myc antibody. […] Total cell lysates were probed with antibodies against mGluR5, G1uR2/3 and VGluT1 respectively.
Total cell lysate was collected immediately after treatment and subjected to SDS-PAGE and immunoblotting with an antibody against the carboxyl terminus (residues 1142-1160) of mGluR1α (FIG. 2A). […] Neurons were transfected with a calcium phosphate precipitation method modified for high transfection rate (Jian et al., Gene Ther 11:1301-1311, 2004).
Cortical neurons were treated with NMDA at the indicated concentrations for 1 h or treated with NMDA (10 μM) for the indicated times. Total cell lysates were separated by SDS-PAGE and probed with antibodies against mGluR1α1142-1160, Results were normalized over control values and are means±s.e.m. of 4 experiments.
To determine whether activation of mGluR1α itself was required for the truncation, two distinct mGluR1α antagonists were applied.
To further characterize NMDA-induced mGluR1α truncation, the concentration- and time-dependencies of the effects of NMDA were studied. Cortical neurons were first incubated with different concentrations of NMDA for a fixed period of time (1 hour) (FIG. 3F). […] In a following experiment, cortical neurons were incubated with 10 μM NMDA for different durations ranging from 1 to 60 min (FIG. 3G).
Cortical neurons were treated with NMDA (10 μM, 1 h). Total cell lysates were separated by SDS-PAGE and probed with antibodies against spectrin and mGluR1α1142-1160, respectively. Only the degradation bands of spectrin (spectrin DB, at ˜145 KD) are shown. […] In FIG. 4C, purified myc-mGluR1α was digested with μ-calpain at the indicated concentrations (U/ml) for 30 min. The digested material was processed for SDS-PAGE and subjected to silver staining or immunoblots with anti-myc or anti-mGluR1α1142-1160 antibodies. […] The 1st lane was the myc-mGluR1α immunoprecipitated from 293 cells; the 2nd and 3rd lanes were immunoprecipitated myc-mGluR1α digested with indicated concentration of calpain. […] FIG. 4F is the alignment of mGluR1 (902-941) and mGluR5 (889-927) surrounding the calpain cleavage site.
In this set of experiments, we determined which protease(s) mediated NMDA-induced truncation of mGluR1α. […] Cortical neurons were pretreated with a calpain inhibitor, the cell-permeable calpain-inhibitor III, or the caspase inhibitor cpm-VAD-CHO for 2 hours and then incubated in the absence or presence of 100 µM NMDA for 1 hour. […] To further confirm calpain activation by NMDA under our experimental conditions, we determined the levels of the calpain-specific spectrin degradation fragments.

[2] = test system: mGluR5; assay: mGluR5 levels in cortical neurons after glutamate (immunoblot); assay type: cell-based; conditions: 100 μM glutamate, 60 min
Text: as §1

[3] = test system: vesicular glutamate transporter (vGluT1); assay: vGluT1 levels in cortical neurons after glutamate (immunoblot); assay type: cell-based; conditions: 100 μM glutamate, 60 min
Text: as §1
To test for the specificity of glutamate-mediated truncation of mGluR1α, immunoblots were also probed with an antibody against mGluR5, another member of group I mGluRs, which shares a high similarity with mGluR1α.

[4] = test system: cortical neurons; assay: Glutamate toxicity in transfected GFP-expressing cortical neurons (EthD-1 staining); assay type: cell-based; conditions: 25 μM glutamate 1 hour, 12 hours later
Text: In FIGS. 8a and b, cortical neurons were co-transfected with green fluorescent protein (GFP) and vector DNA, myc-mGluR1α or myc-mGluR1α936Δ, respectively. […] Twelve hours later, neurons were stained with EthD-1 to label dead cells. Arrowheads in FIG. 8a indicate EthD-1 positive GFP-expressing neurons. * p<0.05. FIGS. 8c and d are representative photos and bar graphs showing differential roles of endogenous mGluR1 in neuronal toxicity before and after NMDA-induced truncation. Cortical neurons were treated as indicated and were stained with EthD-1 (for dead cells) and calcein AM (for live cells) 24 hours later. * p<0.001.
The downstream signaling pathways of mGluR1α, including release of intracellular calcium and activation of P13K-Akt, are both important for excitotoxicity. Therefore, we postulated that NMDA-induced truncation would alter the role of mGluR1α in neuronal toxicity. To test this possibility, we first co-transfected neurons with GFP and a control vector, wild-type mGluR1α or truncated mGluR1α respectively. […] Twelve hours after treatment, neurons were stained with 0.5 μM EthD-1 for 10 minutes to label dead cells. The numbers of GFP-expressing neurons and EthD-1 positive GFP-expressing neurons on each 18×18 mm coverslip were counted to calculate the percentage of dead cells. […] In neurons co-transfected with control vector, 35% (n=9, on average, there were 405 GFP-expressing neurons counted on each coverslip) of GFP-expressing neurons were positive for EthD-1 staining and therefore had died. In neurons co-transfected with wild-type mGluR1α, only 15% of neurons (n=8, in average, there were 428 GFP-expressing neurons counted on each coverslip) were EthD-1 positive, an effect that was statistically different from that in neurons co-transfected with control vector (p<0.01, Student's t-test). […] Therefore it was difficult to determine the exact location of cell bodies and the live/dead ratios in those neurons.

[5] = test system: cultured neurons; assay: Blockade of NMDA neurotoxicity in cultured neurons (live/dead cell assay); assay type: cell-based; conditions: peptide 8 μM, pretreated 90 min; NMDA 50 μM 1 h; analyzed 12 h later
Experimental: In this figure, cultured neurons were pretreated with the tat-peptide for 90 min. They were then treated with NMDA (50 μM) for 1 h. They were analyzed 12 h later by live/dead cell assay (0.5 μM EthD-1 and 2 μM Calcein AM).

[6] = test system: mGluR1α; assay: In vivo truncation of mGluR1α in hippocampus after kainic acid injection; conditions: peptide i.p. 90 min before kainic acid 30 mg/kg s.c., mice
Experimental: (§2) The tat-peptide was injected i.p. 90 min before kainic acid injection. Note that the peptide had no effect on seizure intensity (bottom left).
The objective of this set of experiments was to verify that the feedback mechanism of the present invention could take place in vivo and participate in excitotoxicity. We used the kainic acid model of excitotoxicity, as this model has been widely used to study the mechanisms underlying in vivo excitotoxicity (Wang et al. Mol Neurobiol 31:3-16, 2005). Mice were injected with kainic acid and sacrificed at different times after injection. Levels of mGluR1α were determined in hippocampus with both Western blots and immunohistochemistry (FIG. 10).

[7] = test system: hippocampal neurons; assay: Kainic acid-induced neuronal damage (silver staining) and seizures in mice; assay type: in vivo
Experimental: as §2
They were sacrificed after 7 days and brains processed for silver staining, a marker of cell damage. Note the heavy labeling of the pyramidal cell layer in the KA alone group.
The effect of the tat-mGluR1 peptide on kainic acid-induced neuronal damage was also evaluated.

[8] = test system: mGluR1; assay: Brain membranes treated with purified calpain and calcium: mGluR1 truncation; assay type: biochemical; conditions: purified calpain, calcium
Experimental: (§3) As previously mentioned, calpain inhibitors were previously shown to exert neuroprotective effects in some models of neurodegeneration, and it could be argued that the effects of the tat-mGluR1 peptide we observed were due to some calpain inhibitor effects of the peptide. However, the inventors of the present invention have discovered that this is not likely the case. In particular, when brain membranes were treated with purified calpain in the presence of calcium, truncation of both mGluR1 and spectrin was observed. […] The inventors believe that the peptide acts as a calpain substrate competing with mGluR1 for calpain. The selective protection of tat-mGluR1 has the advantage that it may act as a selective blocking agent without disrupting calpain's other enzymatic activities. Thus, a blocking agent of the present invention will have the advantage of having reduced side-effect profile than calpain inhibitors.

[9] = test system: spectrin; assay: Brain membranes treated with purified calpain and calcium: spectrin degradation; assay type: biochemical; conditions: purified calpain, calcium
Experimental: as §3

[10] = test system: cultured hippocampal slices; assay: OGD-induced cell death in cultured hippocampal slices (LDH release, PI uptake); assay type: cell-based; conditions: 10 μM for 3 h before and during OGD (30 min); 3 h and 24 h after OGD
Experimental: Cultured slices were subjected to OGD for 30 min, and returned to normal glucose and oxygen conditions for 24 h. Neuronal damage was assessed by the propidium iodide (PI) uptake method, which labels damaged cells (a, b), and by LDH release in culture medium (c).
We used a well-known in vitro stroke model, combined oxygen/glucose deprivation in cultured hippocampal slices, to test the idea that the mechanism we have proposed, i.e., calpain-mediated truncation of mGluR1, accounts for neuronal death in stroke. Furthermore, we tested the neuroprotective effects of the tat-mGluR1 peptide in this stroke model. In this model, cultured hippocampal slices are treated for various periods of time (30-60 min) by changing the cultured medium to a medium without glucose and replacing the normal air/5% CO2 with nitrogen. After this period of time, slices are returned to normal glucose-containing medium and exposed to air/5% CO2 and are cultured for again various periods of time. Cell death is evaluated by measuring the amount of LDH release in the medium at various times, as well as by the extent of Propidium Iodide (PI) uptake in the cells (LDH release in the medium is an index of membrane damage, as LDH is a cytoplasmic enzyme; likewise, PI is generally not taken up by cells, except if the cell membrane is severely compromised).

[11] = test system: mGluR1α; assay: OGD-induced mGluR1 truncation in cultured hippocampal slices (immunoblot); assay type: cell-based; conditions: longer OGD (50-min), 6 or 24 hours recovery
Experimental: Cultured hippocampal slices were subjected to 50-min OGD and returned to normal culture condition for another 6 or 24 hours.

Row | Compound | time at which mGluR1α truncation was apparent after glutamate treatment [1] | levels of native mGluR1α ([1]; 60 min (1 hour)) | levels of mGluR5 [2] | changes to vGluT1 [3] | EthD-1 positive GFP-expressing neurons (dead cells) ([4]; co-transfected with control vector) | EthD-1 positive GFP-expressing neurons (dead cells) ([4]; co-transfected with mGluR1α936Δ) | EthD-1 positive GFP-expressing neurons (dead cells) ([4]; co-transfected with wild-type mGluR1α) | prevention of NMDA-mediated neurotoxicity [5] | reduction of kainic acid-induced mGluR1 truncation [6] | effect on kainic acid-induced neuronal damage (silver staining of pyramidal cell layer) ([7]; peptide 100 mg/kg i.p. 90 min before kainic acid 30 mg/kg s.c., 7 days) | effect on severity or duration of kainic acid-induced seizures ([7]; peptide i.p. 90 min before kainic acid) | prevention of calpain-mediated mGluR1 truncation [8] | prevention of calpain-mediated spectrin degradation [9] | neuroprotection assessed with LDH release [10] | neuroprotection assessed with PI uptake [10] | block of OGD-induced mGluR1 truncation [11] | block of OGD-induced mGluR1 truncation ([11]; listed as TAT-mGluR1α fusion peptide)
1 | N[C@@H](CCC(=O)O)C(=O)O [glutamate] | 1 min | almost completely disappeared; also recorded: significant reduction | not significantly altered | no significant changes | 35% | 59% | 15% | – | – | – | – | – | – | – | – | – | –
2 | YGRKKRRQRRRVIKPLTKSYQGSGK [tat-mGluR1 peptide] | – | – | – | – | – | – | – | almost completely prevented | significantly reduced | dramatically reduced; also recorded: significantly reduced | did not influence | prevented | not | complete neuroprotection | complete neuroprotection | almost completely blocked | partially restored

Source: US8642559B2, “C-terminal domain truncation of mGluR1α by calpain and uses thereof” (priority 2006, dated 2014)
